# Like-named read-outs stand apart in the source and are kept apart here.
# Columns and labels:
# [1] = intestinal fluid, pH 6.8; spectra over 24 h
# physchem [2] = conditions: ph 1.2 solution
# physchem [3] = conditions: artificial gastric fluid, pH 1.2
# [4] = PXRD crystallinity of lutein and solid dispersions; format: physicochemical; conditions: 2θ 5° to 50°, room temperature
# physchem [5] = conditions: artificial gastric fluid, pH 1.2; remark: listed apart in the source
# [6] = intestinal condition pH 6.8, 37 ± 0.5 ℃, 100 rpm
# [7] = In vitro dissolution in artificial gastric/intestinal fluid and successive pH (USP 29 apparatus 2); format: physicochemical; conditions: artificial gastric fluid pH 1.2, 120 min
structure (smiles),measurement,setting,value
CC1=C[C@H](O)CC(C)(C)[C@H]1/C=C/C(C)=C/C=C/C(C)=C/C=C/C=C(C)/C=C/C=C(C)/C=C/C1=C(C)C[C@@H](O)CC1(C)C [루테인],change of lutein absorbance spectrum,[1],유의한 변화가 확인되지 않았다
same,lutein content,"pH 1.2, 0 h",10.31 ± 0.29 mg
same,lutein ratio,"pH 1.2, 0 h",100%
same,lutein content,"pH 1.2, after 12 h",1.51 ± 0.03 mg
same,remaining at 12 h,physchem [2],14.7%
same,degraded at 2 h,physchem [3],70%
same,crystallinity (PXRD peaks),[4],다양한 특유의 피크를 갖는 고도의 결정구조
same,degraded at 24 h,physchem [5],~50%
same,change of lutein,[6],루테인 변화가 나타나지 않았다
same,acid resistance,"[7]; 37 ± 0.5 ℃, 100 rpm",산저항성을 나타내었으며
same,lutein detected in dissolution medium,[7]; low solubility,검출되지 않았다

# — patent KR20200058863A, “루테인 장용성 고체분산체를 유효성분으로 함유하는 위산보호용 조성물 및 이를 포함하는 경구용 제제” (중앙대학교 산학협력단, priority 2018, dated 2020)
